Test results published in patent US10882852B1, “3-vinylquinolines as cancer cells inhibitors” (King Abdulaziz University, priority 2020, dated 2021).
Several values for one entry are separate records, joined by “and”; a condition that tells them apart may be missing. Equal values may be shown once. Read-outs that look alike come from different tables or passages of the source.

How the values were obtained:
[1] = system: HL-60 leukemia cells; test: MTT cell viability assay, HL-60; assay type: cell-based, human; details: Homo sapiens
Procedure: (§1) All the human tumour cell lines MCF-7, HCT-116, HL-60 and HeLa were cultured in Dulbecco's Modified Eagle's Medium (DMEM) with 10% fetal bovine serum, 2 mM L-glutamine and 100 µg/mL penicillin/streptomycin. Cells were maintained at 37° C. in 5% CO2 in a humidified incubator. All cells were sub-cultured 3 times/week by trypsinization using TrypLE Express (1×).
(§2) The quinoline compounds were evaluated for antiproliferative effect using the MTT viability assay of four cancer cell lines (MCF-7, HCT-116, HL-60 and HeLa) and normal breast cells MCF-10A to calculate the relative IC50 values for each compound. Cells were seeded in triplicate in 96-well plates at a density of 10×10^3 cells/ml in a total volume of 200 μl per well. 0.1% of DMSO was used as a vehicle control. After this time, they were treated with 2 μl test compound which had been pre-prepared as stock solutions in ethanol to furnish the concentration range of study, 1 nM to 50 μM, and re-incubated for a further 72 h. The culture medium was then removed, and the cells washed with 100 μL phosphate buffered saline (PBS) and 50 μL MTT added, to reach a final concentration of 1 mg/mL MTT added. Cells were incubated for 2 h in darkness at 37° C. At this point solubilisation was begun through the addition of […] DMSO and the cells maintained at room temperature in darkness for 20 min to ensure thorough colour diffusion before reading the absorbance. Plates were incubated for 72 hours at 37° C.+5% CO2, The MTT (5 mg/mL in PBS) was added and incubated for another 4 h, the optical density was detected with a microplate reader at 570 nm. Results were expressed as percentage viability relative to vehicle control (100%). Dose response curves were plotted and IC50 values (concentration of drug resulting in 50% reduction in cell survival) were obtained using the commercial software package Prism (GraphPad Software, Inc., La Jolla, Calif., USA). All the experiments were repeated in at least three independent experiments.

[2] = system: MCF-7, HL-60, HCT-116 and HeLa cancer cells; test: MTT antiproliferative activity over the panel of four cancer cell lines; assay type: cell-based, human; details: for antiproliferative activity (in words): four cancer cell lines, MTT
Procedure: as §1, §2

[3] = system: bovine brain tubulin; test: Tubulin polymerization assay; assay type: biochemical; details: for IC50: inhibition of tubulin polymerization, tubulin at 10 μM, read-out: Tubulin assembly IC50 ± SD; for fold less active than CA-4 in tubulin assembly: versus CA-4
Procedure: The assembly of purified bovine tubulin was monitored using a kit, BK006, purchased from Cytoskeleton Inc., (Denver, Colo., USA). The assay was carried out in accordance with the manufacturer's instructions using the standard assay conditions. […] Light is scattered proportionally to the concentration of polymerized microtubules in the assay. Therefore, tubulin assembly was monitored turbidimetrically at 340 nm in a Spectramax 340 PC spectrophotometer (Molecular Devices, Sunnyvale, Calif., USA). The concentration that inhibits tubulin polymerization by 50% (IC50) was determined using area under the curve (AUC). The AUC of the untreated controls were considered as 100% polymerization. The IC50 value for each compound was computed using GraphPad Prism Software.

[4] = system: MCF-7 breast cancer cells; test: MTT cell viability assay, MCF-7; assay type: cell-based, human; details: Homo sapiens, MCF7, MCF-7, MTT
Procedure: as §1, §2

[5] = system: HeLa cervical cancer cells; test: MTT cell viability assay, HeLa; assay type: cell-based, human; details: Homo sapiens
Procedure: as §1, §2

[6] = system: HCT-116 colon cancer cells; test: MTT cell viability assay, HCT-116; assay type: cell-based, human; details: Homo sapiens, HCT-116, MTT
Procedure: as §1, §2

[7] = HL-60, 72 h, HL-60, MTT, 72 h, mean ± spread of three experiments, read-out: IC50 value (μM) HL-60

melting point	IC50 [3]	SMILES	also measured
247 to 249 °C		COc1cc(C2=NC(=Cc3cc4ccc(OCc5ccccc5)cc4nc3OC)C(=O)O2)cc(OC)c1OC [Compound 8h, 4-[(7-(Benzyloxy)-2-methoxyquinolin-3-yl)methylene]-2-(3,4,5-trimethoxyphenyl)oxazol-5(4H)-one]	
259 to 261 °C		COc1cc(C2=NC(=Cc3cc4ccc(OCc5ccccc5)cc4nc3OC)C(=O)N2)cc(OC)c1OC [Compound 9h, 5-[(7-(Benzyloxy)-2-methoxyquinolin-3-yl)methylene]-2-(3,4,5-trimethoxyphenyl)-3,5-dihydro-4H-imidazol-4-one]	IC50 [1, 7]: 4.93 ± 0.26 µM
236 to 238 °C	20200 nM and 20300 nM	COc1cc(C2=NC(=Cc3cc4ccc(C)cc4nc3OC)C(=O)N2)cc(OC)c1OC [Compound 9c, 5-[(2-Methoxy-7-methylquinolin-3-yl)methylene]-2-(3,4,5-trimethoxyphenyl)-3,5-dihydro-4H-imidazol-4-one]	IC50 ([2]; Homo sapiens, panel of HL-60, MCF-7, HCT-116, HeLa, read-out: IC50 values across the four cancer cell lines): 22300 to 73300 nM; antiproliferative activity (in words) [2]: potent activity in submicromolar range; fold less active than 8c in tubulin polymerization ([3]; versus oxazolone derivative 8c): 16 fold
218 to 220 °C		COc1cc(C2=NC(=Cc3cc4cc(C)ccc4nc3OC)C(=O)O2)cc(OC)c1OC [Compound 8b, 4-[(2-Methoxy-6-methylquinolin-3-yl)methylene]-2-(3,4,5-trimethoxyphenyl)oxazol-5(4H)-one]	
215 to 217 °C	13900 nM and 14000 nM	COc1cc(C2=NC(=Cc3cc4ccccc4nc3OC)C(=O)O2)cc(OC)c1OC [Compound 8a, 4-[(2-Methoxyquinolin-3-yl)methylene]-2-(3,4,5-trimethoxyphenyl)oxazol-5(4H)-one]	fold less active than CA-4 in tubulin assembly [3]: 4 fold
227 to 229 °C	8230 nM	COc1cc(C2=NC(=Cc3cc4ccc(OC(C)C)cc4nc3OC)C(=O)O2)cc(OC)c1OC [Compound 8g, 4-[(7-Isopropoxy-2-methoxyquinolin-3-yl)methylene]-2-(3,4,5-trimethoxyphenyl)oxazol-5(4H)-one]	fold less active than CA-4 in tubulin assembly [3]: 6 fold
242 to 244 °C	2200 nM and 2260 nM	COc1ccc2nc(OC)c(/C=C3\N=C(c4cc(OC)c(OC)c(OC)c4)OC3=O)cc2c1 [Compound 8e]	IC50 ([1]; HL-60, HL-60, MTT, read-out: IC50 in HL-60 (unit inferred)): 0.0685 µM; IC50 ([4]; read-out: IC50 in MCF-7 (unit inferred)): 56.8 nM; IC50 ([5]; read-out: IC50 in HeLa (unit inferred)): 10.1 nM; IC50 ([6]; read-out: IC50 in HCT-116 (unit inferred)): 0.0318 µM
233 to 235 °C		COc1cc(C2=NC(=Cc3cc4cccc(C)c4nc3OC)C(=O)N2)cc(OC)c1OC [Compound 9d, 5-[(2-Methoxy-8-methylquinolin-3-yl)methylene]-2-(3,4,5-trimethoxyphenyl)-3,5-dihydro-4H-imidazol-4-one]	antiproliferative activity (in words) [2]: potent activity in submicromolar range
236 to 238 °C		COc1cc(C2=NC(=Cc3cc4cccc(C)c4nc3OC)C(=O)O2)cc(OC)c1OC [Compound 8d, 4-[(2-Methoxy-8-methylquinolin-3-yl)methylene]-2-(3,4,5-trimethoxyphenyl)oxazol-5(4H)-one]	
238 to 240 °C		COc1cc(C2=NC(=Cc3cc4ccc(OC(C)C)cc4nc3OC)C(=O)N2)cc(OC)c1OC [Compound 9g, 5-((7-Isopropoxy-2-methoxyquinolin-3-yl)methylene)-2-(3,4,5-trimethoxyphenyl)-3,5-dihydro-4H-imidazol-4-one]	
230 to 232 °C		COc1cc(C2=NC(=Cc3cc4ccccc4nc3OC)C(=O)N2)cc(OC)c1OC [Compound 9a, 5-[(2-Methoxyquinolin-3-yl)methylene]-2-(3,4,5-trimethoxyphenyl)-3,5-dihydro-4H-imidazol-4-one]	
253 to 255 °C	1400 nM and 1480 nM	COc1ccc2nc(OC)c(C=C3N=C(c4cc(OC)c(OC)c(OC)c4)NC3=O)cc2c1 [Compound 9e, 5-[(2,6-Dimethoxyquinolin-3-yl)methylene]-2-(3,4,5-trimethoxyphenyl)-3,5-dihydro-4H-imidazol-4-one]	IC50 [1, 7]: 0.272 ± 0.05 µM; IC50 ([4]; read-out: IC50 in MCF-7): 42.9 nM; IC50 ([5]; read-out: IC50 in HeLa): 62.3 nM; IC50 ([6]; 72 h, read-out: IC50 value (μM) HCT-116): 0.085 ± 0.003 µM
221 to 223 °C		COc1ccc2cc(C=C3N=C(c4cc(OC)c(OC)c(OC)c4)OC3=O)c(OC)nc2c1 [Compound 8f, 4-[(2,7-Dimethoxyquinolin-3-yl)methylene]-2-(3,4,5-trimethoxyphenyl)oxazol-5(4H)-one]	
223 to 225 °C		COc1cc(C2=NC(=Cc3cc4cc(C)ccc4nc3OC)C(=O)N2)cc(OC)c1OC [Compound 9b, 5-[(2-Methoxy-6-methylquinolin-3-yl)methylene]-2-(3,4,5-trimethoxyphenyl)-3,5-dihydro-4H-imidazol-4-one]	antiproliferative activity (in words) [2]: potent activity in submicromolar range
241 to 243 °C		COc1ccc2cc(C=C3N=C(c4cc(OC)c(OC)c(OC)c4)NC3=O)c(OC)nc2c1 [Compound 9f, 5-[(2,7-Dimethoxyquinolin-3-yl)methylene]-2-(3,4,5-trimethoxyphenyl)-3,5-dihydro-4H-imidazol-4-one]	IC50 ([4]; read-out: IC50 in MCF-7): 92.7 nM; IC50 ([5]; read-out: IC50 in HeLa): 101 nM; IC50 ([6]; read-out: IC50 in HCT-116): 0.188 µM
